# Reference: paper PMC4856767 (Cell Research, 2016)
# “Also recorded” adds a separate entry of the source. No end group written: not given here.
# T1: extracellular LRR domain of PXY (PXY^LRR, residues 1-647) (Arabidopsis, UniProt Q9FII5 30-647)
# T1 sequence: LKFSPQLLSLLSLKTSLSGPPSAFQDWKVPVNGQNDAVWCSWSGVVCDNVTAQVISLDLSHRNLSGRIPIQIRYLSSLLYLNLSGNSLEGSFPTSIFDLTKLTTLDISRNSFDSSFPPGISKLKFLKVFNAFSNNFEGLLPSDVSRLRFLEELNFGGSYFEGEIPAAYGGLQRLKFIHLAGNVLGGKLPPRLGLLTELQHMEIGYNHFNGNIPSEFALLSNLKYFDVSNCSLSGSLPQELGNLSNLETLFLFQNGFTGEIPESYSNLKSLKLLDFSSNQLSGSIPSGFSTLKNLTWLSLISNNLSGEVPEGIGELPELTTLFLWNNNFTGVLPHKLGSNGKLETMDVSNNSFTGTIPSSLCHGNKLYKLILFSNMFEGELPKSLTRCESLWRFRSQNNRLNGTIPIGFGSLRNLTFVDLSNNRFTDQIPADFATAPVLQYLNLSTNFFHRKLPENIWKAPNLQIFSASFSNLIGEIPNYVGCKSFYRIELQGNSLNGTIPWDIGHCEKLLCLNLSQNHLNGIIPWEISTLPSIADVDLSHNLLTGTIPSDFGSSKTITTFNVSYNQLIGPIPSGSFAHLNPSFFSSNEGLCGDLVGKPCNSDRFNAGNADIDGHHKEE
# What was measured:
# PXL1^LRR = assay: In vitro GST pull-down, PXL1^LRR; type: binding, Arabidopsis; conditions: GS4B resin, wash 10 mM Bis-Tris pH 6.0, 100 mM NaCl; SDS-PAGE, Coomassie blue; Figure 1A
# PXL2^LRR = assay: In vitro GST pull-down, PXL2^LRR; type: binding, Arabidopsis; conditions: GS4B resin, wash 10 mM Bis-Tris pH 6.0, 100 mM NaCl; SDS-PAGE, Coomassie blue; Figure 1A
# [1] = target: T1, extracellular LRR domain of PXY …; assay: pull-down
# [2] = target: T1, extracellular LRR domain of PXY …; assay: ITC
molecule,measurement,setting,value
"GST-TDIF: GST tagged-TDIF protein expressed in E. coli strain BL21 (DE3) (HEVPSGPNPISN; also: GST tag, end not given here)",interaction with PXL1^LRR in pull-down,PXL1^LRR,can pull-down; also recorded: much lower affinities
same,interaction with PXL2^LRR in pull-down,PXL2^LRR,can pull-down; also recorded: much lower affinities
HEVPSGPNPISN [recombinant GST-TDIF],binding result,[1],binds
REVPSGPNPISN [synthetic mutant peptide TDIF^H1R],Kd,[2],~68 nM
